Data reported in patent US9364479B2, “Use of a receptor-type kinase modulator for treating polycystic kidney disease” (SYMPHONY EVOLUTION, INC., priority 2010, dated 2016).

Experiments:
[1] = target: EGFR Variant III (pTet-On/Lx-1) (Homo sapiens, UniProt P00533, DELINS30-297G); assay: EGFR phosphorylation ELISA in transfected Lx-1 cells
From the text: Lx-1 cells were used because they lack background EGFR activity. A clone corresponding to the longest EGFR isoform (Genbank accession no. NM_005228.3/NP_005219.2 #21-176, Upstate Biotechnology) was used as a template to produce two mutant EGFR genes (coding for L858R and L861Q) by site-directed mutagenesis. The WT and the two sequence-verified mutants were transferred to a COOH-terminal Flag-tagged retroviral cytomegalovirus promoter-driven mammalian expression vector. The two Tet-On expression vectors, EGFR WT (Tet-On) and EGFRvIII (Tet-On), which were COOH-terminally Flag tagged, were generously provided by Dr. Abhijit Guha (University of Toronto, Toronto, Ontario, Canada).
Transient transfections of Lx-1 cells were done using Lipofectamine 2000 (Invitrogen) according to the manufacturer's protocol. For transfections of the WT, L858R, and L861Q constructs, 1 μg plasmid DNA was used for each transfection (each well of a 12-well plate). […]
For the EGFR phosphorylation ELISA, Reacti-Bind streptavidin-coated plates (Pierce) were coated with 2 μg/mL biotin-conjugated anti-Flag antibody (Sigma). […] Horseradish peroxidase activity was determined by reading the plates in a Victor2 plate reader following addition of the ELISA Femto substrate.

[2] = test system: panel of 10 tyrosine kinases and 55 serine-threonine kinases; assay: Kinase panel screen; format: biochemical; details: incl. insulin and IGF-1 receptor, CDKs, SAPKs, PKC isoforms
A431 tumors = assay: Immunohistochemical analysis of A431 tumors; format: in vivo, mouse; details: 14-day dosing
Method: For immunohistochemical analysis of H1975, MDA-MB-231 and other xenografts, tumors were excised after euthanasia and fixed in zinc fixative (BD Biosciences) for 48 h before being processed into paraffin blocks. Serial sections at 5 μm were obtained from the area of largest possible surface for each tumor and stained using standard methods. The following antibodies were used: Ki67 (SP6; Labvision), CD31 (MECA.32; BD Biosciences), pERK^Thr202/Tyr204 (phospho-p44/42 mitogen-activated protein kinase; Cell Signaling Technology), pAKT^Ser473 (Cell Signaling Technology), and pEGFR^Tyr1068 (Cell Signaling Technology). For immunofluorescent staining, sections were then incubated with Alexa 594-conjugated goat anti-rabbit secondary antibody (Invitrogen) and mounted in Fluorescent Mounting Medium (DAKO) containing 4′,6-diamidino-2-phenylindole (Molecular Probes) as a nuclear counterstain. Fluorescent staining was visualized using a Zeiss Axiolmager and digitally captured using a Zeiss high-resolution camera coupled to AxioVision image analysis software. Two to three nonoverlapping representative fields were captured at ×200 or ×400 magnification depending on histologic readout and quantified using the integrated morphometric analysis functions in Metamorph software (Universal Imaging Corp.). Apoptotic cells were detected using terminal deoxynucleotidyl transferase-mediated dUTP nick end labeling in situ cell death detection kit according to the manufacturer's instructions (Roche Diagnostics GmbH).
CD31-positive tumor vessels, Ki67-positive proliferating cells, and pERK staining in each tumor section were identified and quantified using the integrated morphometric analysis functions in the ACIS automatic cellular imaging system (Clarient, Inc.) and reviewed by a blinded observer. Number of CD31-positive vessels were identified across 5 to 10 randomly chosen fields of equal size at ×100 magnification in viable tumor tissue and calculated as number of vessels per square millimeter for each tumor, averaged for each treatment group, and compared with vehicle-treated controls. Percentage Ki67-positive cells were calculated as the ratio between Ki67-positive cells divided by the total number of cells identified across 5 to 10 randomly chosen fields of equal size in viable tumor tissue. The results for each tumor and treatment group were averaged and compared with vehicle-treated controls. The level of pERK staining was determined as described above and calculated as the ratio of antibody staining divided by the total number of cells identified, averaged for each treatment group, and compared with vehicle-treated controls.

[3] = test system: Glycine, Strychnine-sensitive; assay: NovaScreen assay; format: binding

Chain of EGFR Variant III (pTet-On/Lx-1) (P00533 with tags, fused parts or gaps DELINS30-297G): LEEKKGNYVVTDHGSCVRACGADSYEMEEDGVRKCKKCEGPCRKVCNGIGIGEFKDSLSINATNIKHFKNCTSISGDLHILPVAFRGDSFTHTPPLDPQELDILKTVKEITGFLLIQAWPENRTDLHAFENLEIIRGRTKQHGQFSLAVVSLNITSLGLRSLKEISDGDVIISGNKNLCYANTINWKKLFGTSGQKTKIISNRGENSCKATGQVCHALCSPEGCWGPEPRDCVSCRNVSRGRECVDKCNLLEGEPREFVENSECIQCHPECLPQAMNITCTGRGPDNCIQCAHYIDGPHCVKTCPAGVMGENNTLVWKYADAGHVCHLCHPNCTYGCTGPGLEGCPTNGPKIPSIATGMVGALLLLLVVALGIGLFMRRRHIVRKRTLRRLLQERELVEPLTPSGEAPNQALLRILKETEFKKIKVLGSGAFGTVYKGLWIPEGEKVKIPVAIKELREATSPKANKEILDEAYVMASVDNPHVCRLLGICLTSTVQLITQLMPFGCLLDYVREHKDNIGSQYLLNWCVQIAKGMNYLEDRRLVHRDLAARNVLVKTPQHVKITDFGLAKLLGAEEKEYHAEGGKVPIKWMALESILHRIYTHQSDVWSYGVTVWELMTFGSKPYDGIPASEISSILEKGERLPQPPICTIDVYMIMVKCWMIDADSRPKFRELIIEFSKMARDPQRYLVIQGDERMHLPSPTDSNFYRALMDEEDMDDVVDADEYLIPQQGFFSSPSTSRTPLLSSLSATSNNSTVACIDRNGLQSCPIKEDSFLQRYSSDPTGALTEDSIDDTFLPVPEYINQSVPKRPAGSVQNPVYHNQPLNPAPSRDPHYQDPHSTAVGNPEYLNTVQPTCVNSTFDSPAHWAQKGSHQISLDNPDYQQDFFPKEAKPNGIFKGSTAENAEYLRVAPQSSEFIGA

COc1cc2c(Nc3ccc(Cl)c(Cl)c3F)ncnc2cc1OC[C@@H]1C[C@@H]2CN(C)C[C@@H]2C1 [XL-647, N-(3,4-dichloro-2-fluorophenyl)-7-({[(3aR,5r,6aS)-2-methyloctahydrocyclopenta[c]pyrrol-5-yl]methyl}oxy)-6-(methyloxy)quinazolin-4-amine]
IC50 [1]: 74 nM | activity against kinase panel, in words [2]: inactive | CD31 Analysis % Reduction (A431 tumors; 10 mg/kg): 33.5% | CD31 Analysis MVC (A431 tumors; 10 mg/kg): 18.6 | Ki67 Expression % Reduction (A431 tumors; 10 mg/kg): 53.3% | Ki67 Expression % of Cells (A431 tumors; 10 mg/kg): 17.6% | Necrosis % Increase (A431 tumors; 10 mg/kg): 20.7% | CD31 Analysis % Reduction (A431 tumors; 30 mg/kg): 43.2% | CD31 Analysis MVC (A431 tumors; 30 mg/kg): 15.9 | Ki67 Expression % Reduction (A431 tumors; 30 mg/kg): 67.2% | Ki67 Expression % of Cells (A431 tumors; 30 mg/kg): 12.3% | Necrosis % Increase (A431 tumors; 30 mg/kg): 26.5% | CD31 Analysis % Reduction (A431 tumors; 100 mg/kg): 87.3% | CD31 Analysis MVC (A431 tumors; 100 mg/kg): 3.6 | Ki67 Expression % Reduction (A431 tumors; 100 mg/kg): 82.6% | Ki67 Expression % of Cells (A431 tumors; 100 mg/kg): 6.5% | Necrosis % Increase (A431 tumors; 100 mg/kg): 61.7% | Inhibition, 10 μM XL-647 [3]: 12.95%
